# Test results taken from patent US20070254928A1, “Use of Roflumilast for the Prophylaxis or Treatment of Emphysema” (Altana Pharma AG, priority 2004, published 2007).
# Marks after values point to notes of the source that are not given here.
# What was measured:
# Format in all cases: in vivo
# [1] = tested on: cigarette smoke induced emphysema in mice (C57BI/6J); experiment: Chronic model of cigarette smoke exposure in mice: morphometric assessment of emphysema (Lm, ISA); settings: for Lm (mean linear intercept) / ISA (internal surface area of the lung): 7 months, mean ± SEM; for ISA (internal surface area of the lung): ISA=4VL/Lm; for Inhibition of emphysema formation (Lm and ISA), in words: smoke-exposed
# Protocol: (§1) Effects of ROFLUMILAST in an Chronic Model of Cigarette Smoke Exposure in Mice
# (§2) Eighty 6 week old male mice of the strain C57BI/6J (supplied Harlan-Italy, Udine, Italy) were used in this study. The mice were housed in groups of 7 to 10 in macrolon cages. Room temperature was kept at 22° to 24° C.; and relative humidity at 40 to 50%; food and water were supplied ad libitum. All animal experimentation was approved by the Local Ethical Committee of the University of Siena.
# (§3) ROFLUMILAST was given p.o. by gavage in a volume of 10 μl suspension/g body weight 60 min prior to either air or smoke exposure.
# (§4) The methodology for chronic smoke exposure has been previously described in detail (Cavarra et al; Am J Respir Crit Care Med 2001; Vol 164, pp 886-890). Briefly, mice were exposed to either the smoke of 3 cigarettes/day (commercial Virginia filter cigarettes: 12 mg of tar and 0.9 mg of nicotine), 5 days/week or to room air (controls) for 7 months, in especially designed macrolon cages (Tecniplast, Buguggiate, Italy). These cages (42.5×26.6×19 cm) are equipped with a disposable filter cover which enables the air to flow out of the cages and thus to be continuously renewed. The smoke was produced by the burning of a cigarette and was introduced into the chamber with the airflow generated by a mechanical ventilator (7025 Rodent Ventilator, Ugo Basile, Biological Research Instruments, Comerio, Italy), at a rate of 33 ml /min. A second mechanical ventilator was used to provide room air for dilution (1:8) of the smoke-stream. With this methodology the mice were exposed to the smoke originated by three cigarettes once a day for the duration of 90 min. In a pilot study, the efficiency of the smoke delivery system was tested in 12 mice by measuring blood HbCO by co-oxymetry.
# Seven months after chronic exposure to room air or cigarette smoke (24 h after last exposure), 5 to 12 animals of each group, were anesthetized with ether and then exsanguinated by severing the abdominal aorta. The lungs were excised and fixed intratracheally with buffered formalin (5%) at a constant pressure of 20 cm H2O for at least 24 hours. Post-fixation lung volume (VL) was measured by water displacement. All lungs were then dehydrated, cleared in toluene and embedded under vacuum in paraffin. Two 7-μm transversal sections were made and stained with hematoxylin-eosin and/or periodic acid-Schiff (PAS). Two pathologists blinded to the exposure protocol carried out the morphological and morphometrical evaluation.
# Morphometric assessment of emphysema included determination of the average inter-alveolar distance (mean linear intercept: Lm) and internal surface area estimated by the Lm method at postfixation lung volume. For the determination of the Lm for each pair of lungs, 40 histological fields were evaluated both vertically and horizontally. Examination of these numbers of fields meant that practically the entire lung area was evaluated. Internal surface area of the lung (ISA) was calculated by according to the formula: ISA=4VL/Lm.
# (§5) All data were analyzed using GraphPad Prism software (GraphPad Software, San Diego, Calif., USA). For each parameter the values of the individual animals were averaged and the SEM was calculated. The significance of the differences was calculated using parametric one-way analysis of variance (ANOVA) with subsequent Bonferroni's multiple comparison post-test for selected pairs. A p value of <0.05 was considered significant.
# [2] = tested on: cigarette smoke induced emphysema in mice (C57BI/6J); experiment: Chronic model of cigarette smoke exposure in mice: lung desmosine content by HPLC; settings: for Desmosine (lung content): 7 months, mean ± SEM
# Protocol: as §1, §2, §3, §4
# Lung desmosine concentration was determined by High Pressure Liquid Chromatography (HPLC) essentially according to Cumiskey et al. (J Chromatogr B 1995, Vol 668, pp 199-207). Briefly, lung samples were homogenized in 5% TCA (1:9, w:v) and centrifuged for 10 min. at 4000 g at 4° C. The pellet was then washed twice with distilled water and hydrolyzed for 16 h at 130° C. in 6 N HCl.
# After hydrolysis, the samples were centrifuged for 10 min at 2000 g and filtered through a FP 030/3 0.2 μm filter (Schleicher & Schuell). Aliquots (0.5 ml) of samples were desiccated under liquid nitrogen and then suspended in 0.6 ml 0.1 M sodium phosphate, pH 3.73.
# The HPLC apparatus consisted of a single pump (Pro-Star 210, Varian) delivering isocratic mobile phase, of which 80% was 0.1 M dibasic sodium phosphate adjusted to pH 3.75 with phosphoric acid; the remaining 20% was acetonitrile. Sodium dodecyl sulphate (SDS) was added to a final concentration of 10 mM. The pH was re-adjusted after the addition of acetonitrile and SDS. The flow rate was 0.8 ml/min through a C18 (reverse phase MSORV 100A, Varian). Injection volumes of 100 μl of test samples diluted in 0.1 M sodium phosphate buffer, pH 3.75 was used to detect desmosine concentration. Detection of desmosine was by absorbance at 275 nm. Peak purity was checked with a Pro-Star 330 photodiode array detector (Varian) scanning from 200 to 400 nm. Isodesmosine eluted at approx. 9 min, and desmosine approx. at 12 min. Peak height, appopriate external calibration curves and internal standards were used to quantitate desmosine in unknown samples. Desmosine standards were from Elastin Co. (USA).
# as §5
# C57BI/6J mice = experiment: Chronic model of cigarette smoke exposure in mice: mortality; settings: all groups, ROFLUMILAST 1 or 5 mg/kg p.o., 7 months
# Protocol: as §2, §3
# as §4, with “A second mechanical ventilator was used to provide room air for dilution (1:8) of the smoke-stream. With this methodology the mice were exposed to the smoke originated by three cigarettes once a day for the duration of 90 min. In a pilot study, the efficiency of the smoke delivery system was tested in 12 mice by measuring blood HbCO by co-oxymetry.” left out
# [3] = air exposure, ROFLUMILAST 5 mg/kg p.o.
# [4] = chronic model of cigarette smoke induced emphysema in mice, dose not given
# [5] = cigarette smoke exposure, ROFLUMILAST 1 mg/kg p.o.
# [6] = cigarette smoke exposure, ROFLUMILAST 5 mg/kg p.o.
smiles,measurement,setting,value
"O=C(Nc1c(Cl)cncc1Cl)c1ccc(OC(F)F)c(OCC2CC2)c1 [ROFLUMILAST, 3-cyclopropylmethoxy-4-difluoro-methoxy-N-(3,5-dichloropyrid-4-yl)benzamide]",Lm (mean linear intercept),[1]; [3],33.48 ± 0.36 μm
same,ISA (internal surface area of the lung),[1]; [3],1342.70 ± 23.39## cm^2
same,"Effect on increase of Lm, in words",[1]; [4],can prevent the increase of Lm
same,Lm (mean linear intercept),[1]; [5],40.79 ± 0.87 μm
same,ISA (internal surface area of the lung),[1]; [5],1079.78 ± 35.61** cm^2
same,Lm (mean linear intercept),[1]; [6],34.28 ± 0.31 μm
same,ISA (internal surface area of the lung),[1]; [6],1292.21 ± 29.63# cm^2
same,"Inhibition of emphysema formation (Lm and ISA), in words",[1]; ROFLUMILAST 1 mg/kg,unable to inhibit emphysema formation
same,"Inhibition of emphysema formation (Lm and ISA), in words",[1]; ROFLUMILAST 5 mg/kg,gross inhibition of emphysema formation
same,Desmosine (lung content),[2]; [3],2.91 ± 0.08 μg/lung
same,"Effect on drop of the desmosine content in the lung, in words",[2]; [4],can prevent the drop of the desmosine content in the lung
same,Desmosine (lung content),[2]; [5],2.45 ± 0.11 μg/lung
same,Desmosine (lung content),[2]; [6],2.98 ± 0.10 μg/lung
same,"Lung desmosine content compared to air-exposed, in words","[2]; smoke-exposed, ROFLUMILAST 1 mg/kg",significantly lower lung desmosine content
same,"Lung desmosine content compared to air-exposure, in words","[2]; smoke-exposed, ROFLUMILAST 5 mg/kg",Unchanged lung desmosine content
same,Mortality,C57BI/6J mice,No animal died
